From patent US20240247031A1, “COMPOSITION FOR TREATING CANCER CONTAINING TELOMERASE-TARGETING GNRH ANTAGONIST-DERIVED PEPTIDE HS1002” (Research & Business Foundation Sungkyunkwan University, priority 2023, published 2024)

Experiments:
[1] = tested on: SKOV3; test: MTT cytotoxicity on various cancer cells (Table 1); format: cell-based, human; settings: ovarian cancer cell line SKOV3; MTT, 48 h
Description: (§1) To evaluate anticancer activities of the produced peptides on various types of cancer cells, MTT analysis was performed. Human prostate cancer cell lines (LNCaP, PC3, and DU145), human breast cancer cell lines (MDA-MB-231 and MCF-7), lung cancer cell line (A549), and ovarian cancer cell line (SKOV3) were cultured in RPMI media supplemented with 1% penicillin/streptomycin and 1% fetal bovine serum (all from Life Technologies, Grand Island, NY). The cells were seeded in 96-well plates containing 100 μL of growth media for 24 h. The media were removed, and then 100 μL of the peptide (solvent DPBS) at each concentration was added to each well and incubated at 37° C. for 48 h. After incubation for 48 h, 100 μL of MTT reagent was added to each well. The cells were incubated at 37° C. for 4 h, and then the supernatant was removed. Formazan crystals were dissolved in 100 μL of DMSO with gentle stirring at 37° C. for 10 min. The absorbance per well was measured at 540 nm using a VERSA max microplate reader (Molecular Devices Corp.).

[2] = tested on: A549; test: MTT cytotoxicity on various cancer cells (Table 1); format: cell-based, human; settings: lung cancer cell line A549; MTT, 48 h
Description: as §1

[3] = tested on: MC38 tumor; test: MC38 syngeneic mouse tumor model (FIG. 19); format: in vivo; settings: 1 mg/kg s.c. every day
Description: All mice were purchased from Central Lab Animal Inc. ([…]). They were raised in a 12 h environmental light/dark cycle with controlled temperature (22±2° C.) conditions. The experimental protocol was approved by the Sungkyunkwan University Institutional Animal Care and Use Committee (SKKUIACUC2021-06-27-1, SKKUIACUC2023-01-07-1). For the establishment of tumors, LNCaP (1×10^7), MC38 (2×10^5), and 4T1 (1×10^6) suspended in serum-free media containing 50% Matrigel was subcutaneously administered in the right flank of mice, respectively. The tumor volumes (V) were calculated using a caliper and the standard equation: V (mm^3)=0.52 (ab^2) (a=length, b=width). Once the tumor reached 100-200 mm^3, the mice were randomly divided into different groups and subcutaneously injected with a vehicle or each peptide every day.
The sequences of the TERT peptide are highly conserved in human and mouse, indicating its potential translatability to mouse cancer. […] Hot tumors are generally more responsive to immunotherapy. In contrast, ‘Cold’ tumors such as the 4T1 tumor model lack infiltrating T cells and often have a low tumor mutational burden. Without a pre-existing adaptive immune response, cold tumors are insensitive to immunotherapy. […]

## CCNC(=O)[C@@H]1CCCN1C(=O)[C@@H](NC(=O)[C@H](Cc1ccccc1)NC(=O)[C@H](CCCNC(=N)N)NC(=O)[C@H](CC(C)C)NC(=O)[C@H](CCCNC(=N)N)NC(=O)[C@H](Cc1ccc(O)cc1)NC(=O)[C@H](CO)NC(=O)[C@H](Cc1c[nH]c2ccccc12)NC(=O)[C@H](Cc1c[nH]cn1)NC(=O)[C@@H]1CCC(=O)N1)[C@@H](C)CC [HS1002]
[1]
  Cytotoxicity (IC50) SKOV3: 4.91 ± 0.41 µg/mL
[2]
  Cytotoxicity (IC50) A549: 7.94 ± 0.07 µg/mL
[3]
  tumor volume: diminished
  tumor weight: diminished
